Measured values published in US11739098B2 (BRISTOL-MYERS SQUIBB COMPANY, priority 2017, dated 2023).

Experiments:
Format in all cases: cell-based
human TLR8 = molecular target: T1, human TLR8 (Homo sapiens, UniProt Q9NR97); experiment: TLR8 inhibition reporter assay (HEK-Blue cells, SEAP reporter, R848 stimulation); details: HEK-Blue cells overexpressing human TLR8, SEAP reporter, R848 15.9 μM
T1 construct: host or cells: HEK-Blue cells (HEK293-derived reporter line)
T1 sequence (Q9NR97 27-1041): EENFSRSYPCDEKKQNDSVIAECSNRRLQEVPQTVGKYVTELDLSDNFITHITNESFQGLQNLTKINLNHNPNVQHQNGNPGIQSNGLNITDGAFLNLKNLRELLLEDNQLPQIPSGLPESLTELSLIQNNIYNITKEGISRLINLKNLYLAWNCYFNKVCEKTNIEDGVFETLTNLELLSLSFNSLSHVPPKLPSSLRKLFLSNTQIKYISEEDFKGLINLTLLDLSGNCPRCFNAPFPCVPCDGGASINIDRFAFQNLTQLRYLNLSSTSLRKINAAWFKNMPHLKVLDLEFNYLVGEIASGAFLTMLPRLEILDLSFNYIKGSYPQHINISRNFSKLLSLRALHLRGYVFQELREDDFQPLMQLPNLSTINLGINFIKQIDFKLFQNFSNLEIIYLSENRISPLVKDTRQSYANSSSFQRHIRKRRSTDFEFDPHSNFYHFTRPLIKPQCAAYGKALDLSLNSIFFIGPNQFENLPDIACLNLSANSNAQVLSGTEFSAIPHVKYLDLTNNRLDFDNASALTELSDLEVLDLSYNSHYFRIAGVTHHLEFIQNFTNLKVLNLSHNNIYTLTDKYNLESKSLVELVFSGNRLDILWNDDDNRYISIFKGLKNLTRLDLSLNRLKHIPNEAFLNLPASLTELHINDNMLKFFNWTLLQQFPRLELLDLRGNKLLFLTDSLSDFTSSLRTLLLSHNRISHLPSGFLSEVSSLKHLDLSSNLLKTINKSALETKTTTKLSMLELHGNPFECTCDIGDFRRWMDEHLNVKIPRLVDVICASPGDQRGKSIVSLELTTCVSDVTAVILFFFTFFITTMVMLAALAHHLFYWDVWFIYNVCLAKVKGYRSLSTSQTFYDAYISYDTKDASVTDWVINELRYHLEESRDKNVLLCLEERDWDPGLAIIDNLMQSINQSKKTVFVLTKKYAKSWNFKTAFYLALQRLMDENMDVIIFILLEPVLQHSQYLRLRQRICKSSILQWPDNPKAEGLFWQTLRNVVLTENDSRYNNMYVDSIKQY
Procedure, shortened: (§1)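 Read-out is SEAP activity in HEK-Blue detection medium after 22 h at 37 °C, converted to percent inhibition against agonist-plus-DMSO and reference-inhibitor controls. Cells saw compound (0.05 nM–50 μM, 30 min, room temperature) before gardiquimod 7.5 μM, R848 15.9 μM or ODN2006 5 nM for TLR7, TLR8 and TLR9, respectively.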

human TLR7 = molecular target: T2, human TLR7 (Homo sapiens, UniProt Q9NYK1); experiment: TLR7 inhibition reporter assay (HEK-Blue cells, SEAP reporter, gardiquimod stimulation); details: HEK-Blue cells overexpressing human TLR7, SEAP reporter, gardiquimod 7.5 μM
T2 construct: host or cells: HEK-Blue cells (HEK293-derived reporter line)
T2 sequence (Q9NYK1 27-1049): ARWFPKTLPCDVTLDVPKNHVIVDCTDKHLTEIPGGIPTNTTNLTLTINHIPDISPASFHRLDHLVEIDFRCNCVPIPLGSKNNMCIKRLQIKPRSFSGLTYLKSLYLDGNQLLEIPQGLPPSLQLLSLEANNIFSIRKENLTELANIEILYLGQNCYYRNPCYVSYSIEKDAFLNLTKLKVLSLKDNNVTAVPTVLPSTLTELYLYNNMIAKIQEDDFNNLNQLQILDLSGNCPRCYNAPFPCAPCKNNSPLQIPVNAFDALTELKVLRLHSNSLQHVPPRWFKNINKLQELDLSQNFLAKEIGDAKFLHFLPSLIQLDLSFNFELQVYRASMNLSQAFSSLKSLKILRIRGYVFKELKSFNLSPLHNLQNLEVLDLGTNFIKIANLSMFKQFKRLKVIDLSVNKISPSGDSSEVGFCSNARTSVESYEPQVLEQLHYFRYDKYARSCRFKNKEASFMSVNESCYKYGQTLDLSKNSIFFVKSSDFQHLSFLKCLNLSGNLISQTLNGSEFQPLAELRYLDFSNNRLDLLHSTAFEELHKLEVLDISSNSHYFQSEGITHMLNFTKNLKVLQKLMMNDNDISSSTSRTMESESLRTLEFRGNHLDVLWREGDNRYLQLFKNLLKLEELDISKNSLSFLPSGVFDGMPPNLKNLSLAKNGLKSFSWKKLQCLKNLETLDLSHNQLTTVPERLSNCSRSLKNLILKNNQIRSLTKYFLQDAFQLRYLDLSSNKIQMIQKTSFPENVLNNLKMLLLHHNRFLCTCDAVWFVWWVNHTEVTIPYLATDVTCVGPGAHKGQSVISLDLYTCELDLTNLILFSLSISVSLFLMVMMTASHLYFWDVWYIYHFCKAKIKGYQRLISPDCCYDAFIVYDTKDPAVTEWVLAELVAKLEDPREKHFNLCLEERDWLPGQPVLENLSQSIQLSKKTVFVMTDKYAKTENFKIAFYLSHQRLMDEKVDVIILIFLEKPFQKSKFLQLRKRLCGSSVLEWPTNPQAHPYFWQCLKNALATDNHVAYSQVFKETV
Procedure, shortened: as §1

human TLR9 = molecular target: T3, human TLR9 (Homo sapiens, UniProt Q9NR96); experiment: TLR9 inhibition reporter assay (HEK-Blue cells, SEAP reporter, ODN2006 stimulation); details: HEK-Blue cells overexpressing human TLR9, SEAP reporter, ODN2006 5 nM
T3 construct: host or cells: HEK-Blue cells (HEK293-derived reporter line)
T3 sequence (Q9NR96 26-1032): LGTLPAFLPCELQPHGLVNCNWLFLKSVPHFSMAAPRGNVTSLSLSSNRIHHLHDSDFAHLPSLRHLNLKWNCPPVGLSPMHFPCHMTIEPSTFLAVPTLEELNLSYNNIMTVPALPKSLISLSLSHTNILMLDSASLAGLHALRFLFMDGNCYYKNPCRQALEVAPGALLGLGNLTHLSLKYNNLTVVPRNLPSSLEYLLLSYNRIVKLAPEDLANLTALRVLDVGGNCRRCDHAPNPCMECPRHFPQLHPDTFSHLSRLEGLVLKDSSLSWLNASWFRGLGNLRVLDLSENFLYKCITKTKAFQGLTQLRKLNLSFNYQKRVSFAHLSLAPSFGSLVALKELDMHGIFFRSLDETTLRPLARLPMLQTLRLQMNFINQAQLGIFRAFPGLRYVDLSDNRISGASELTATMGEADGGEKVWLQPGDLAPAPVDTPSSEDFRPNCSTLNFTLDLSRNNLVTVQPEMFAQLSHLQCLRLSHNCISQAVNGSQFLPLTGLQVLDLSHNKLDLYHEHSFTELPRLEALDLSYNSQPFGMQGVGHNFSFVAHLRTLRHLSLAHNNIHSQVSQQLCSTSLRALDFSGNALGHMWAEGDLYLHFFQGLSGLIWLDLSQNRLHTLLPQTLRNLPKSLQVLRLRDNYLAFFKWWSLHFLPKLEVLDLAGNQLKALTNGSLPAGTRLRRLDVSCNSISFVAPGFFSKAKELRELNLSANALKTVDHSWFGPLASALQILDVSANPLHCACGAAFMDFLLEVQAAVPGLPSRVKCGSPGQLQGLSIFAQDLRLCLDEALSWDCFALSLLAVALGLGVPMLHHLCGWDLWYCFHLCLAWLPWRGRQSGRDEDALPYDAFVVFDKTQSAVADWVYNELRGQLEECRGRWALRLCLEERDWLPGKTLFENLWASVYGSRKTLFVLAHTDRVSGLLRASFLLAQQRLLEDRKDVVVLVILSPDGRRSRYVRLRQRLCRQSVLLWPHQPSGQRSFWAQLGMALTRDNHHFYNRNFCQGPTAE
Procedure, shortened: as §1

| SMILES | IC50 (human TLR8) | IC50 (human TLR7) | IC50 (human TLR9) |
| --- | --- | --- | --- |
| Cc1cc(-c2[nH]c3ccc(C4CCN(C(=O)CCN5CC(C)(C)OC(C)(C)C5)CC4)cc3c2C(C)C)cn2nnnc12 [Example 621, 1-(4-(3-isopropyl-2-(8-methyltetrazolo[1,5-a]pyridin-6-yl)-1H-indol-5-yl)piperidin-1-yl)-3-(2,2,6,6-tetramethylmorpholino)propan-1-one] | < 0.1 µM | < 0.1 µM | 1 to 50 µM |
| COc1cc(-c2[nH]c3ccc(C4CCN(C(=O)CN(C)C)CC4)cc3c2C(C)C)cc2ncnn12 [Example 532, 2-(dimethylamino)-1-(4-(3-isopropyl-2-(5-methoxy-[1,2,4]triazolo[1,5-a]pyridin-7-yl)-1H-indol-5-yl)piperidin-1-yl)ethan-1-one] | < 0.1 µM | < 0.1 µM | 1 to 50 µM |
| CC(C)c1c(-c2cn3ccnc3cc2Cl)[nH]c2ccc(C3CCN(CC(=O)N(C)C)CC3)cc12 [Example 428, 2-(4-(2-(7-chloroimidazo[1,2-a]pyridin-6-yl)-3-isopropyl-1H-indol-5-yl)piperidin-1-yl)-N,N-dimethylacetamide] | < 0.1 µM | < 0.1 µM | 1 to 50 µM |
| CNC(=O)CN1CCC(c2ccc3[nH]c(-c4cc(C)c5oc(=O)[nH]c5c4)c(C(C)C)c3c2)CC1 [Example 337, 2-(4-(3-isopropyl-2-(7-methyl-2-oxo-2,3-dihydrobenzo[d]oxazol-5-yl)-1H-indol-5-yl)piperidin-1-yl)-N-methylacetamide] | 0.1 to 1 µM | 0.1 to 1 µM | 1 to 50 µM |
| Cc1cc2cc(-c3[nH]c4ccc(C5CCN(CC(C)(C)O)CC5)cc4c3C(C)C)cc(CC(C)C)n2n1 [Example 770, 1-(4-(2-(7-isobutyl-2-methylpyrazolo[1,5-a]pyridin-5-yl)-3-isopropyl-1H-indol-5-yl)piperidin-1-yl)-2-methylpropan-2-ol] | > 3.13 µM | > 3.13 µM | 1 to 50 µM |
| CNC(=O)CN1CCC(c2ccc3[nH]c(-c4ccn5cnnc5c4)c(C(C)C)c3c2)CC1 [Example 306, 2-(4-(2-([1,2,4]triazolo[4,3-a]pyridin-7-yl)-3-isopropyl-1H-indol-5-yl)piperidin-1-yl)-N-methylacetamide] | 0.1 to 1 µM | 0.1 to 1 µM | 1 to 50 µM |
| CC(C)c1c(-c2ccc3nccn3c2)[nH]c2ccc(C3CCN(C4CCN(C(C)C)CC4)CC3)cc12 [Example 803, 6-(3-isopropyl-5-(1′-isopropyl-[1,4′-bipiperidin]-4-yl)-1H-indol-2-yl)imidazo[1,2-a]pyridine] | < 0.1 µM | < 0.1 µM | 0.1 to 1 µM |
| Cc1nc2c(-c3[nH]c4ccc(C5CCN(C(=O)C[C@H](C)O)CC5)cc4c3C(C)C)ccc(C)n2n1 [Example 598, (S)-1-(4-(2-(2,5-dimethyl-[1,2,4]triazolo[1,5-a]pyridin-8-yl)-3-isopropyl-1H-indol-5-yl)piperidin-1-yl)-3-hydroxybutan-1-one] | 1 to 50 µM | > 3.13 µM | > 50 µM |
| Cc1cc2nnnn2cc1-c1[nH]c2ccc(C3CCNCC3)cc2c1C(C)C [Example 76, 6-(3-isopropyl-5-(piperidin-4-yl)-1H-indol-2-yl)-7-methyltetrazolo[1,5-a]pyridine] | < 0.1 µM | < 0.1 µM | 1 to 50 µM |

The next lines start with the values.

| IC50 (human TLR8) | IC50 (human TLR7) | IC50 (human TLR9) | SMILES |
| --- | --- | --- | --- |
| < 0.1 µM | < 0.1 µM | 1 to 50 µM | CNC(=O)CN1CCC(c2ccc3[nH]c(-c4cc(C)n5ncnc5c4)c(C(C)C)c3c2)CC1 [Example 325, 2-(4-(3-isopropyl-2-(5-methyl-[1,2,4]triazolo [1,5-a]pyridin-7-yl)-1H-indol-5-yl)piperidin-1-yl)-N-methylacetamide] |
| 1 to 50 µM | 1 to 50 µM | 0.1 to 1 µM | Cc1cc(-c2[nH]c3ccc(C4CCNCC4)cc3c2C(C)C)c2[nH]c(C)cc2n1 [Example 40, 7-(3-isopropyl-5-(piperidin-4-yl)-1H-indol-2-yl)-2,5-dimethyl-1H-pyrrolo[3,2-b]pyridine] |
| < 0.1 µM | < 0.1 µM | 1 to 50 µM | COc1c(C)c(-c2[nH]c3ccc(C4CCN(C5COC5)CC4)cc3c2C(C)C)nn2ncnc12 [Example 731, 6-(3-isopropyl-5-(1-(oxetan-3-yl)piperidin-4-yl)-1H-indol-2-yl)-8-methoxy-7-methyl-[1,2,4]triazolo[1,5-b]pyridazine] |
| < 0.1 µM | < 0.1 µM | 1 to 50 µM | Cc1cc2nnnn2cc1-c1[nH]c2ccc(C3CCN(CC(N)=O)CC3)cc2c1C(C)C [Example 315, 2-(4-(3-isopropyl-2-(7-methyltetrazolo[1,5-a]pyridin-6-yl)-1H-indol-5-yl)piperidin-1-yl)acetamide] |
| < 0.1 µM | < 0.1 µM | 1 to 50 µM | CC(C)c1c(-c2cnc3cn[nH]c3c2)[nH]c2ccc(C3CCN(C(=O)CN(C)C)CC3)cc12 [Example 526, 2-(dimethylamino)-1-(4-(3-isopropyl-2-(1H-pyrazolo[4,3-b]pyridin-6-yl)-1H-indol-5-yl)piperidin-1-yl)ethan-1-one] |
